In the supplement of paper PMC10307832:

Columns and labels:
Experiment in all cases: relative viability (nuclei count vs DMSO), 5 days (fraction); higher = more cells survive
LK-2 = tested on: LK-2
In short: (§1)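 Lung cancer cell lines in 1536-well plates got either a single drug or a fixed anchor-drug dose together with five library-drug doses (not always all listed) in √10 steps, by pin tool, on the day after seeding. Nuclei were counted after 5 days, and relative viability is the treated-to-vehicle ratio of nuclei counts. Values are medians of duplicate plates.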

NCI-H647 = tested on: NCI-H647
In short: as §1

SW 900 = tested on: SW 900
In short: as §1

A-427 = tested on: A-427
In short: as §1

SK-LU-1 = tested on: SK-LU-1
In short: as §1

NCI-H2085 = tested on: NCI-H2085
In short: as §1

NCI-H322M = tested on: NCI-H322M
In short: as §1

NCI-H3122 = tested on: NCI-H3122
In short: as §1

PC-14 = tested on: PC-14
In short: as §1

UMC-11 = tested on: UMC-11
In short: as §1

NCI-H1993 = tested on: NCI-H1993
In short: as §1

NCI-H1734 = tested on: NCI-H1734
In short: as §1

H3255 = tested on: H3255
In short: as §1

NCI-H1651 = tested on: NCI-H1651
In short: as §1

EKVX = tested on: EKVX
In short: as §1

NCI-H460 = tested on: NCI-H460
In short: as §1

RERF-LC-KJ = tested on: RERF-LC-KJ
In short: as §1

NCI-H1437 = tested on: NCI-H1437
In short: as §1

NCI-H2087 = tested on: NCI-H2087
In short: as §1

NCI-H2405 = tested on: NCI-H2405
In short: as §1

NCI-H2347 = tested on: NCI-H2347
In short: as §1

NCI-H358 = tested on: NCI-H358
In short: as §1

COR-L23 = tested on: COR-L23
In short: as §1

NCI-H23 = tested on: NCI-H23
In short: as §1

LXF-289 = tested on: LXF-289
In short: as §1

`Nc1cccc2c1CN(C1CCC(=O)NC1=O)C2=O` (stereo not given) [Lenalidomide] + CC(=O)Nc1cccc(-n2c(=O)n(C3CC3)c(=O)c3c(Nc4ccc(I)cc4F)n(C)c(=O)c(C)c32)c1 [Trametinib] (partner 0.02 µM) was tested, and the relative viability (LK-2; first compound 0.253 µM) was 0.772, the relative viability (LK-2; first compound 0.8 µM) was 0.747 and the relative viability (LK-2; first compound 2.53 µM) was 0.746. The relative viability (LK-2; first compound 8 µM) was 0.717, the relative viability (NCI-H647; first compound 0.253 µM) was 0.47 and the relative viability (NCI-H647; first compound 0.8 µM) was 0.413. For the same compound, the relative viability (NCI-H647; first compound 2.53 µM) was 0.691, the relative viability (NCI-H647; first compound 8 µM) was 0.422 and the relative viability (SW 900; first compound 2.53 µM) was 1. It also gave a relative viability (SW 900; first compound 8 µM) of 0.76, a relative viability (A-427; first compound 0.253 µM) of 0.731 and a relative viability (A-427; first compound 0.8 µM) of 0.724. It also gave a relative viability (A-427; first compound 2.53 µM) of 0.825, a relative viability (A-427; first compound 8 µM) of 0.765 and a relative viability (SK-LU-1; first compound 0.253 µM) of 0.515. The relative viability (SK-LU-1; first compound 0.8 µM) was 0.443, the relative viability (SK-LU-1; first compound 2.53 µM) was 0.596 and the relative viability (SK-LU-1; first compound 8 µM) was 0.432. It also gave a relative viability (NCI-H2085; first compound 0.253 µM) of 0.507, a relative viability (NCI-H2085; first compound 0.8 µM) of 0.405 and a relative viability (NCI-H2085; first compound 2.53 µM) of 0.515. For the same compound, the relative viability (NCI-H2085; first compound 8 µM) was 0.464, the relative viability (NCI-H322M; first compound 0.253 µM) was 0.507 and the relative viability (NCI-H322M; first compound 0.8 µM) was 0.527. For the same compound, the relative viability (NCI-H322M; first compound 2.53 µM) was 0.508, the relative viability (NCI-H322M; first compound 8 µM) was 0.511 and the relative viability (NCI-H3122; first compound 0.253 µM) was 0.234. It also gave a relative viability (NCI-H3122; first compound 0.8 µM) of 0.246, a relative viability (NCI-H3122; first compound 2.53 µM) of 0.253 and a relative viability (NCI-H3122; first compound 8 µM) of 0.205. The relative viability (PC-14; first compound 0.253 µM) was 0.839, the relative viability (PC-14; first compound 0.8 µM) was 0.722 and the relative viability (PC-14; first compound 2.53 µM) was 0.981. It also gave a relative viability (PC-14; first compound 8 µM) of 0.779, a relative viability (UMC-11; first compound 0.253 µM) of 0.514 and a relative viability (UMC-11; first compound 0.8 µM) of 0.449. For the same compound, the relative viability (UMC-11; first compound 2.53 µM) was 0.885, the relative viability (UMC-11; first compound 8 µM) was 0.472 and the relative viability (NCI-H1993; first compound 0.253 µM) was 0.491. It also gave a relative viability (NCI-H1993; first compound 0.8 µM) of 0.503, a relative viability (NCI-H1993; first compound 2.53 µM) of 0.474 and a relative viability (NCI-H1993; first compound 8 µM) of 0.518. For the same compound, the relative viability (NCI-H1734; first compound 0.253 µM) was 0.69, the relative viability (NCI-H1734; first compound 0.8 µM) was 0.606 and the relative viability (NCI-H1734; first compound 2.53 µM) was 0.702. It also gave a relative viability (NCI-H1734; first compound 8 µM) of 0.605, a relative viability (H3255; first compound 0.253 µM) of 0.547 and a relative viability (H3255; first compound 0.8 µM) of 0.624. It also gave a relative viability (H3255; first compound 2.53 µM) of 0.661, a relative viability (H3255; first compound 8 µM) of 0.541 and a relative viability (NCI-H1651; first compound 0.253 µM) of 0.79. For the same compound, the relative viability (NCI-H1651; first compound 0.8 µM) was 0.932, the relative viability (NCI-H1651; first compound 2.53 µM) was 0.902 and the relative viability (NCI-H1651; first compound 8 µM) was 0.82. For the same compound, the relative viability (EKVX; first compound 0.253 µM) was 0.391, the relative viability (EKVX; first compound 0.8 µM) was 0.32 and the relative viability (EKVX; first compound 2.53 µM) was 0.432. For the same compound, the relative viability (EKVX; first compound 8 µM) was 0.328, the relative viability (NCI-H460; first compound 0.253 µM) was 0.0785 and the relative viability (NCI-H460; first compound 0.8 µM) was 0.13. It also gave a relative viability (NCI-H460; first compound 2.53 µM) of 0.127, a relative viability (NCI-H460; first compound 8 µM) of 0.19 and a relative viability (RERF-LC-KJ; first compound 0.253 µM) of 0.875. The relative viability (RERF-LC-KJ; first compound 0.8 µM) was 0.886, the relative viability (RERF-LC-KJ; first compound 2.53 µM) was 0.915 and the relative viability (RERF-LC-KJ; first compound 8 µM) was 0.85. The relative viability (NCI-H1437; first compound 0.253 µM) was 0.523, the relative viability (NCI-H1437; first compound 0.8 µM) was 0.365 and the relative viability (NCI-H1437; first compound 2.53 µM) was 0.611. The relative viability (NCI-H1437; first compound 8 µM) was 0.486, the relative viability (NCI-H2087; first compound 0.253 µM) was 0.191 and the relative viability (NCI-H2087; first compound 2.53 µM) was 0.28. For the same compound, the relative viability (NCI-H2087; first compound 8 µM) was 0.186, the relative viability (NCI-H2405; first compound 0.253 µM) was 0.648 and the relative viability (NCI-H2405; first compound 0.8 µM) was 0.657. It also gave a relative viability (NCI-H2405; first compound 2.53 µM) of 0.654, a relative viability (NCI-H2405; first compound 8 µM) of 0.546 and a relative viability (NCI-H2347; first compound 0.253 µM) of 0.329. It also gave a relative viability (NCI-H2347; first compound 0.8 µM) of 0.279, a relative viability (NCI-H2347; first compound 2.53 µM) of 0.323 and a relative viability (NCI-H2347; first compound 8 µM) of 0.179. It also gave a relative viability (NCI-H358; first compound 0.8 µM) of 0.132, a relative viability (NCI-H358; first compound 2.53 µM) of 0.133 and a relative viability (NCI-H358; first compound 8 µM) of 0.19. It also gave a relative viability (COR-L23; first compound 0.253 µM) of 0.613, a relative viability (COR-L23; first compound 0.8 µM) of 0.677 and a relative viability (COR-L23; first compound 2.53 µM) of 0.678. For the same compound, the relative viability (COR-L23; first compound 8 µM) was 0.508, the relative viability (NCI-H23; first compound 0.253 µM) was 0.398 and the relative viability (NCI-H23; first compound 2.53 µM) was 0.426. It also gave a relative viability (NCI-H23; first compound 8 µM) of 0.412, a relative viability (LXF-289; first compound 0.253 µM) of 0.661 and a relative viability (LXF-289; first compound 0.8 µM) of 0.604. It also gave a relative viability (LXF-289; first compound 2.53 µM) of 0.671 and a relative viability (LXF-289; first compound 8 µM) of 0.691.
